Measured values reported in patent publication US7585998B2 (Bayer CropScience AG, priority 2003, dated 2009).

Assay: log P determination by HPLC on a reverse phase column (C 18), EEC Directive 79/831 Annex V.A8
Type: physicochemical
Conditions: pH 2.3, 0.1% aqueous phosphoric acid and acetonitrile as eluents, linear gradient 10% to 90% acetonitrile, 43° C.
Method: The determination of the log P values reported in the above tables and preparation examples is carried out in compliance with EEC Directive 79/831 Annex V.A8 by HPLC (High Performance Liquid Chromatography) on a reverse phase column (C 18). Temperature: 43° C. The determination is carried out in the acid region at pH 2.3 with 0.1% aqueous phosphoric acid and acetonitrile as eluents; linear gradient of 10% acetonitrile to 90% acetonitrile. Calibration is carried out with unbranched alkan-2-ones (with 3 to 16 carbon atoms) the log P values of which are known (determination of the log P values on the basis of retention times by linear interpolation between two sequential alkanones).

Compound: CCOC(=O)c1sc(C)nc1C(F)F
- chromatographic logP: 2.18
